This assay has as its target T1, human NK3 receptor (Homo sapiens, UniProt P29371).
T1 construct: expressed in transfected cells; host or cells: HEK293 cells, transiently transfected; membranes
T1 sequence (P29371 1-465): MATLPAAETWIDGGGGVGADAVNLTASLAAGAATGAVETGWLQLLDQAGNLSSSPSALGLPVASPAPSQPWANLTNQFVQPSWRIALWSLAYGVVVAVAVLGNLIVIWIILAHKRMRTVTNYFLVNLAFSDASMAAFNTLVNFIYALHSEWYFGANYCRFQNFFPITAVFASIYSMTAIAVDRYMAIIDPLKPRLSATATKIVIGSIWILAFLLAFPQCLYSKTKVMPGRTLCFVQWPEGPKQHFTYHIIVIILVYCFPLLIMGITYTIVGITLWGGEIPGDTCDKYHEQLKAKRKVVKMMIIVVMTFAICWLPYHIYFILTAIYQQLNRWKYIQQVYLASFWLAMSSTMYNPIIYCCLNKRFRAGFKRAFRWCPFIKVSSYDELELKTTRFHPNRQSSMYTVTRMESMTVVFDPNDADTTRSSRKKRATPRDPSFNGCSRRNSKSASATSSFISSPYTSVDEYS
Kind of assay: [3H]SR142801 competition binding assay. The protocol: [^3H]SR142801 Competition Binding Assay
hNK3 receptor binding experiment were performed using [^3H]SR142801 (Catalog No. TRK1035, specific activity: 74.0 Ci/mmol, Amersham, GE Healthcare UK limited, Buckinghamshire, UK) and membrane isolated from HEK293 cells transiently expressing recombinant human NK3 receptor. After thawing, the membrane homogenates were centrifuged at 48,000×g for 10 min at 4° C., the pellets were resuspended in the 50 mM Tris-HCl, 4 mM MnCl2, 1 μM phosphoramidon, 0.1% BSA binding buffer at pH 7.4 to a final assay concentration of 5 μg protein/well. For inhibition experiments, membranes were incubated with [^3H]SR142801 at a concentration equal to KD value of radioligand and 10 concentrations of the inhibitory compound (0.0003-10 μM) (in a total reaction volume of 500 μl) for 75 min at room temperature (RT). At the end of the incubation, membranes were filtered onto unitfilter (96-well white microplate with bonded GF/C filter preincubated 1 h in 0.3% PEI+0.3% BSA, Packard BioScience, Meriden, Conn.) with a Filtermate 196 harvester (Packard BioScience) and washed 4 times with ice-cold 50 mM Tris-HCl, pH 7.4 buffer. Nonspecific binding was measured in the presence of 10 μM SB222200 for both radioligands. The radioactivity on the filter was counted (5 min) on a Packard Top-count microplate scintillation counter with quenching correction after addition of 45 μl of microscint 40 (Canberra Packard S.A., Zürich, Switzerland) and shaking for 1 h. Inhibition curves were fitted according to the Hill equation: y=100/(1+(x/IC50)^nH), where nH=slope factor using Excel-fit 4 software (Microsoft). IC50 values were derived from the inhibition curve and the affinity constant (Ki) values were calculated using the Cheng-Prussoff equation Ki=IC50/(1+[L]/KD) where [L] is the concentration of radioligand and KD is its dissociation constant at the receptor, derived from the saturation isotherm. All experiments were performed in duplicate and the mean±standard error (SEM) of the individual Ki values was calculated.

Where [1] appears, read: [3H]SR142801 displacement, membranes of HEK293 cells transiently expressing recombinant human NK3 receptor, read-out: hNK3 Ki.
The mark [2] stands for this setting: hNK3 Ki, [3H]SR142801 displacement, membranes of HEK293 cells transiently expressing recombinant human NK3 receptor.

Where two headings read alike, the source gives them in different places.

With `O=C1Nc2ccc(F)cc2C2(CCN(CCCC(C(=O)NCc3ccc(C(F)(F)F)cc3)c3ccc(Cl)c(Cl)c3)CC2)O1` (stereo not drawn) [Example 135, 2-(3,4-dichlorophenyl)-5-(6-fluoro-2-oxo-1,2-dihydro-1′H-spiro[3,1-benzoxazine-4,4′-piperidin]-1′-yl)-N-[4-(trifluoromethyl)benzyl]pentanamide], the Ki under setting [1] came to 0.0903 µM.
With `O=C1Nc2ccc(F)cc2C2(CCN(CCC(C(=O)NCc3ccc(Cl)cc3)c3ccc(Cl)c(Cl)c3)CC2)O1` (stereo not drawn) [Example 8, N-(4-chlorobenzyl)-2-(3,4-dichlorophenyl)-4-(6-fluoro-2-oxo-1,2-dihydro-1′H-spiro[3,1-benzoxazine-4,4′-piperidin]-1′-yl)butanamide], the Ki under setting [2] came out at 0.017 µM.
The compound `CN1C(=O)OC2(CCN(CCC(C(=O)NC(c3ccc(Cl)cc3)c3nccn3C)c3ccc(Cl)c(Cl)c3)CC2)c2cc(F)ccc21` (stereo not drawn) [Example 88, N-[(4-chlorophenyl)(1-methyl-1H-imidazol-2-yl)methyl]-2-(3,4-dichlorophenyl)-4-(6-fluoro-1-methyl-2-oxo-1,2-dihydro-1′H-spiro[3,1-benzoxazine-4,4′-piperidin]-1′-yl)butanamide] gave a Ki of 0.0722 µM.
Regarding `CN(Cc1ccc(Cl)cc1)C(=O)[C@@H](CCN1CCC2(CC1)OC(=O)N(C)c1ccc(F)cc12)c1ccc(Cl)c(Cl)c1` [Example 148, (2S)-N-(4-chlorobenzyl)-2-(3,4-dichlorophenyl)-4-(6-fluoro-1-methyl-2-oxo-1,2-dihydro-1′H-spiro[3,1-benzoxazine-4,4′-piperidin]-1′-yl)-N-methylbutanamide], the Ki under setting [1] was 0.0004 µM.
In the case of `O=C1Nc2ccc(F)cc2C2(CCN(CCCC(C(=O)NCc3ccc(Cl)cc3)c3ccc(Cl)c(Cl)c3)CC2)O1` (stereo not drawn) [Example 125, N-(4-chlorobenzyl)-2-(3,4-dichlorophenyl)-5-(6-fluoro-2-oxo-1,2-dihydro-1′H-spiro[3,1-benzoxazine-4,4′-piperidin]-1′-yl)pentanamide], the Ki under setting [2] amounted to 0.0983 µM.
`CN(CCc1ccccc1)C(=O)C(CCN1CCC2(CC1)OC(=O)N(C)c1ccc(F)cc12)c1ccc(Cl)c(Cl)c1` (stereo not drawn) [Example 90, 2-(3,4-dichlorophenyl)-4-(6-fluoro-1-methyl-2-oxo-1,2-dihydro-1′H-spiro[3,1-benzoxazine-4,4′-piperidin]-1′-yl)-N-metyl-N-(2-phenylethyl)butanamide] showed a Ki of 0.008 µM.
For `CN(Cc1cccc(Cl)c1)C(=O)C(CCN1CCC2(CC1)OC(=O)Nc1ccc(F)cc12)c1ccc(F)cc1` (stereo not drawn) [Example 25, N-(3-chlorobenzyl)-4-(6-fluoro-2-oxo-1,2-dihydro-1′H-spiro[3,1-benzoxazine-4,4′-piperidin]-1′-yl)-2-(4-fluorophenyl)-N-methylbutanamide], the inhibition constant (Ki) under setting [2] was 0.0594 µM.
Same read-out and setting: to `CN(Cc1ccc(N2CCOCC2)cc1)C(=O)C(CCN1CCC2(CC1)OC(=O)N(C)c1ccc(F)cc12)c1ccc(Cl)c(Cl)c1` (stereo not drawn) [Example 95, 2-(3,4-dichlorophenyl)-4-(6-fluoro-1-methyl-2-oxo-1,2-dihydro-1′H-spiro[3,1-benzoxazine-4,4′-piperidin]-1′-yl)-N-methyl-N-(4-morpholin-4-ylbenzyl)butanamide] belongs 0.0288 µM; to `O=C1Nc2ccc(F)cc2C2(CCN(CCC(C(=O)NCc3ccccc3OC(F)(F)F)c3ccc(Cl)c(Cl)c3)CC2)O1` (stereo not drawn) [Example 66, 2-(3,4-dichlorophenyl)-4-(6-fluoro-2-oxo-1,2-dihydro-1′H-spiro[3,1-benzoxazine-4,4′-piperidin]-1′-yl)-N-[2-(trifluoromethoxy)benzyl]butanamide], 0.0288 µM.
Still for that read-out and setting: as for `O=C1Nc2ccc(F)cc2C2(CCN(CCC(C(=O)NCc3ccc(OC(F)(F)F)cc3)c3ccc(Cl)c(Cl)c3)CC2)O1` (stereo not drawn) [Example 85, 2-(3,4-dichlorophenyl)-4-(6-fluoro-2-oxo-1,2-dihydro-1′H-spiro[3,1-benzoxazine-4,4′-piperidin]-1′-yl)-N-[4-(trifluoromethoxy)benzyl]butanamide], the figure is 0.0699 µM; as for `CN(Cc1ccc(C(F)(F)F)cc1)C(=O)C(CCN1CCC2(CC1)OC(=O)Nc1ccc(F)cc12)c1ccc(Cl)c(Cl)c1` (stereo not drawn) [Example 68, 2-(3,4-dichlorophenyl)-4-(6-fluoro-2-oxo-1,2-dihydro-1′H-spiro[3,1-benzoxazine-4,4′-piperidin]-1′-yl)-N-methyl-N-[4-(trifluoromethyl)benzyl]butanamide], 0.0014 µM; as for `CN(Cc1ccc(F)cc1)C(=O)C(CCCN1CCC2(CC1)OC(=O)Nc1ccc(F)cc12)c1ccc(Cl)c(Cl)c1` (stereo not drawn) [Example 131, 2-(3,4-dichlorophenyl)-N-(4-fluorobenzyl)-5-(6-fluoro-2-oxo-1,2-dihydro-1′H-spiro[3,1-benzoxazine-4,4′-piperidin]-1′-yl)-N-methylpentanamide], 0.0692 µM.
Same read-out and setting: to `CN(Cc1cccc(Cl)c1)C(=O)C(CCN1CCC2(CC1)OC(=O)N(C)c1ccc(F)cc12)c1ccc(Cl)c(Cl)c1` (stereo not drawn) [Example 40, N-(3-chlorobenzyl)-2-(3,4-dichlorophenyl)-4-(6-fluoro-1-methyl-2-oxo-1,2-dihydro-1′H-spiro[3,1-benzoxazine-4,4′-piperidin]-1′-yl)-N-methylbutanamide] belongs 0.0011 µM; to `CN1C(=O)OC2(CCN(CCC(C(=O)NCc3cccc(OC(F)(F)F)c3)c3ccc(Cl)c(Cl)c3)CC2)c2cc(F)ccc21` (stereo not drawn) [Example 103, 2-(3,4-dichlorophenyl)-4-(6-fluoro-1-methyl-2-oxo-1,2-dihydro-1′H-spiro[3,1-benzoxazine-4,4′-piperidin]-1′-yl)-N-[3-(trifluoromethoxy)benzyl]butanamide], 0.0037 µM.
In the case of `CN(Cc1ccccc1)C(=O)C(CCN1CCC2(CC1)OC(=O)N(C)c1ccc(F)cc12)c1ccc(Cl)c(Cl)c1` (stereo not drawn) [Example 89, N-benzyl-2-(3,4-dichlorophenyl)-4-(6-fluoro-1-methyl-2-oxo-1,2-dihydro-1′H-spiro[3,1-benzoxazine-4,4′-piperidin]-1′-yl)-N-methyl-butanamide], under setting [2], the Ki amounted to 0.0008 µM.
The same measure, in the same setting: to `O=C1Nc2ccc(F)cc2C2(CCN(CCCC(C(=O)NCc3ccccc3OC(F)(F)F)c3ccc(Cl)c(Cl)c3)CC2)O1` (stereo not drawn) [Example 118, 2-(3,4-dichlorophenyl)-5-(6-fluoro-2-oxo-1,2-dihydro-1′H-spiro[3,1-benzoxazine-4,4′-piperidin]-1′-yl)-N-[2-(trifluoromethoxy)benzyl]pentanamide] belongs 0.0644 µM.
For the compound `CN(Cc1ccc(Cl)cc1)C(=O)[C@H](CCN1CCC2(CC1)OC(=O)N(C)c1ccc(F)cc12)c1ccc(Cl)c(Cl)c1` [Example 147, (2R)-N-(4-chlorobenzyl)-2-(3,4-dichlorophenyl)-4-(6-fluoro-1-methyl-2-oxo-1,2-dihydro-1′H-spiro[3,1-benzoxazine-4,4′-piperidin]-1′-yl)-N-methylbutanamide], the Ki was determined as 0.0018 µM.
Still for that read-out and setting: to `CN1C(=O)OC2(CCN(CCC(C(=O)N3CCc4ccc(F)cc4C3)c3ccc(Cl)c(Cl)c3)CC2)c2cc(F)ccc21` (stereo not drawn) [Example 38, 1′-[3-(3,4-dichlorophenyl)-4-(7-fluoro-3,4-dihydroisoquinolin-2(1H)-yl)-4-oxobutyl]-6-fluoro-1-methylspiro[3,1-benzoxazine-4,4′-piperidin]-2(1H)-one] belongs 0.0487 µM.

As usually defined, the Ki is a dissociation constant, usually derived from enzyme kinetics or from competition with a known ligand.

These data come from patent publication US7470684B2, “Spiropiperidine derivatives as NK3 antagonists” (Hoffmann-La Roche Inc., priority 2007, dated 2008).
